Laboratory results: PubChem BioAssay (NCI)
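How tested: cells in 96-well plates exposed to compound for 48 hours at five concentrations. GI50 is the concentration that inhibits growth by half. TGI: total growth inhibition.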

Legend:
Assay in all cases: inhibition of tumour cell growth, NCI panel, 48 h
[1] = test system: SK-MEL-2 melanoma
[2] = test system: COLO 205 colon
[3] = test system: M14 melanoma
[4] = test system: TK-10 renal
[5] = test system: HOP-62 NSCLC
[6] = test system: SNB-75 CNS
[7] = test system: HCC-2998 colon
[8] = test system: HCT-116 colon
[9] = test system: KM12 colon
[10] = test system: MALME-3M melanoma
[11] = test system: UACC-257 melanoma
[12] = test system: RXF 393 renal
[13] = test system: SK-MEL-5 melanoma
[14] = test system: CAKI-1 renal
[15] = test system: DU-145 prostate
[16] = test system: SF-268 CNS
[17] = test system: MCF7 breast
[18] = test system: MDA-MB-435
[19] = test system: SN12C renal
[20] = test system: IGROV1 ovarian
[21] = test system: HL-60(TB) leukemia
[22] = test system: EKVX NSCLC
[23] = test system: ACHN renal
[24] = test system: UACC-62 melanoma
[25] = test system: SK-MEL-28 melanoma
[26] = test system: SR leukemia
[27] = test system: BT-549 breast
[28] = test system: OVCAR-4 ovarian
[29] = test system: U251 CNS
[30] = test system: NCI-H226 lung
[31] = test system: MOLT-4 leukemia
[32] = test system: HT29 colon
[33] = test system: CCRF-CEM leukemia
[34] = test system: OVCAR-3 ovarian
[35] = test system: SK-OV-3 ovarian
[36] = test system: SF-539 CNS
[37] = test system: MDA-MB-231 breast
[38] = test system: A549 NSCLC
[39] = test system: NCI/ADR-RES ovarian
[40] = test system: NCI-H460 lung
[41] = test system: HCT-15 colon
[42] = test system: OVCAR-8 ovarian
[43] = test system: NCI-H522 lung
[44] = test system: SF-295 CNS
[45] = test system: LOX IMVI melanoma
[46] = test system: K-562 leukemia
[47] = test system: SNB-19 CNS
[48] = test system: NCI-H23 lung
[49] = test system: T-47D breast
[50] = test system: OVCAR-5 ovarian
[51] = test system: HOP-92 NSCLC
[52] = test system: SW-620 colon
[53] = test system: 786-0 renal
[54] = test system: PC-3 prostate
[55] = test system: A498 renal
[56] = test system: HS 578T breast
[57] = test system: MDA-N
[58] = test system: RPMI-8226 leukemia
[59] = test system: UO-31 renal
[60] = test system: DMS 114 small cell lung
[61] = test system: SNB-78 CNS
[62] = test system: XF 498 CNS
[63] = test system: LXFL 529 NSCLC
[64] = test system: KM20L2 colon
[65] = test system: M19-MEL melanoma
[66] = test system: DMS 273 small cell lung
[67] = test system: DLD-1 colon

With `COc1cccc(C=Nc2cc(C)ccn2)c1O.COc1cccc(C=Nc2cc(C)ccn2)c1O.[Cu]` the GI50 [1] was 21.1 µM, the TGI [1] was 53.2 µM and the GI50 [2] was 18.9 µM. It also gave a TGI [2] of 42.8 µM, a GI50 [3] of 12.7 µM and a TGI [3] of 39.1 µM. It also gave a GI50 [4] of 19.8 µM, a TGI [4] of 42 µM and a GI50 [5] of 22.2 µM. The TGI [5] was 63.7 µM, the GI50 [6] was 18.8 µM and the TGI [6] was 44.9 µM. It also gave a GI50 [7] of 16.2 µM, a TGI [7] of 37.9 µM and a GI50 [8] of 14.1 µM. For the same compound, the TGI [8] was 32.3 µM, the GI50 [9] was 18.5 µM and the TGI [9] was 52.5 µM. For the same compound, the GI50 [10] was 16.6 µM, the TGI [10] was 31.7 µM and the GI50 [11] was 19.1 µM. For the same compound, the TGI [11] was 43.1 µM, the GI50 [12] was 11.9 µM and the TGI [12] was 34.8 µM. For the same compound, the GI50 [13] was 7.39 µM, the TGI [13] was 20.9 µM and the GI50 [14] was 20.5 µM. For the same compound, the TGI [14] was 46 µM, the GI50 [15] was 19.3 µM and the TGI [15] was 41.6 µM. It also gave a GI50 [16] of 14.6 µM, a TGI [16] of 42.2 µM and a GI50 [17] of 19.7 µM. The TGI [17] was 62.8 µM, the GI50 [18] was 13.6 µM and the TGI [18] was 45.9 µM. For the same compound, the GI50 [19] was 19 µM, the TGI [19] was 50.4 µM and the GI50 [20] was 21.4 µM. For the same compound, the TGI [20] was 48.8 µM, the GI50 [21] was 1.75 µM and the TGI [21] was 14.2 µM. For the same compound, the GI50 [22] was 25.4 µM, the TGI [22] was 71.5 µM and the GI50 [23] was 22.3 µM. It also gave a TGI [23] of 43.8 µM, a GI50 [24] of 15.8 µM and a TGI [24] of 31.9 µM. It also gave a GI50 [25] of 21.7 µM, a TGI [25] of 48 µM and a GI50 [26] of 18.6 µM. It also gave a TGI [26] of over 100 µM, a GI50 [27] of 16.5 µM and a TGI [27] of 42.4 µM. The GI50 [28] was 25.4 µM, the TGI [28] was over 100 µM and the GI50 [29] was 15.7 µM. It also gave a TGI [29] of 51.1 µM, a GI50 [30] of 9.25 µM and a TGI [30] of 27.2 µM. The GI50 [31] was 10.9 µM, the TGI [31] was 73.4 µM and the GI50 [32] was 23.1 µM. It also gave a TGI [32] of 52.4 µM, a GI50 [33] of 6.01 µM and a TGI [33] of 32.1 µM. The GI50 [34] was 14 µM, the TGI [34] was 40.9 µM and the GI50 [35] was 13.6 µM. It also gave a TGI [35] of 28.1 µM, a GI50 [36] of 17 µM and a TGI [36] of 42.9 µM. It also gave a GI50 [37] of 23.2 µM, a TGI [37] of 50.4 µM and a GI50 [38] of 27.8 µM. It also gave a TGI [38] of 90.1 µM, a GI50 [39] of 19.1 µM and a TGI [39] of 68.3 µM. The GI50 [40] was 18.3 µM, the TGI [40] was 44 µM and the GI50 [41] was 11.9 µM. It also gave a TGI [41] of 36 µM, a GI50 [42] of 20.4 µM and a TGI [42] of 64.4 µM. The GI50 [43] was 22.3 µM, the TGI [43] was 52.3 µM and the GI50 [44] was 18 µM. For the same compound, the TGI [44] was 46.1 µM, the GI50 [45] was 8.53 µM and the TGI [45] was 30.9 µM. It also gave a GI50 [46] of 18.2 µM, a TGI [46] of 68.1 µM and a GI50 [47] of 19.7 µM. For the same compound, the TGI [47] was 60.5 µM, the GI50 [48] was 19 µM and the TGI [48] was 49.4 µM. It also gave a GI50 [49] of 12 µM, a TGI [49] of 33.1 µM and a GI50 [50] of 20.2 µM. It also gave a TGI [50] of 44.7 µM, a GI50 [51] of 30.3 µM and a TGI [51] of 50.6 µM. The GI50 [52] was 18.3 µM, the TGI [52] was 51.9 µM and the GI50 [53] was 14.3 µM. For the same compound, the TGI [53] was 45.2 µM, the GI50 [54] was 17.8 µM and the TGI [54] was 42.9 µM. It also gave a GI50 [55] of 22.8 µM, a TGI [55] of 43.4 µM and a GI50 [56] of 19 µM. The TGI [56] was 67.6 µM, the GI50 [57] was 16.3 µM and the TGI [57] was 41.3 µM. It also gave a GI50 [58] of 17.6 µM and a TGI [58] of over 100 µM.

For `O=S(=O)(Sc1ccc(Cl)cc1)c1ccc(Cl)cc1`, the TGI [1] was 14.5 µM, the TGI [2] was 31.8 µM and the TGI [3] was 32.5 µM. The TGI [59] was 23.9 µM, the TGI [4] was 61.4 µM and the TGI [5] was 30.9 µM. It also gave a TGI [6] of 40.5 µM, a TGI [60] of 28.6 µM and a TGI [7] of 40.7 µM. It also gave a TGI [61] of 45.9 µM, a TGI [8] of 28.6 µM and a TGI [9] of 32.5 µM. The TGI [10] was 48.9 µM, the TGI [62] was 53.4 µM and the TGI [11] was 36.3 µM. For the same compound, the TGI [12] was 30.1 µM, the TGI [63] was 32.7 µM and the TGI [13] was 28.6 µM. For the same compound, the TGI [14] was 40.5 µM, the TGI [16] was 21.3 µM and the TGI [19] was 25.4 µM. The TGI [20] was 31.1 µM, the TGI [21] was 33 µM and the TGI [22] was 57.5 µM. The TGI [23] was 31.2 µM, the TGI [24] was 31.4 µM and the TGI [25] was 31.1 µM. The TGI [26] was 45 µM, the TGI [28] was 41.7 µM and the TGI [29] was 22.3 µM. The TGI [30] was 30.9 µM, the TGI [31] was 44.5 µM and the TGI [32] was 35 µM. The TGI [64] was 34.1 µM, the TGI [33] was 18.5 µM and the TGI [34] was 30.2 µM. The TGI [35] was 85.2 µM, the TGI [36] was 27.7 µM and the TGI [38] was 32.7 µM. The TGI [40] was 37.4 µM, the TGI [41] was 40.2 µM and the TGI [42] was 30.2 µM. For the same compound, the TGI [43] was 31.1 µM, the TGI [44] was 27.2 µM and the TGI [45] was 24.8 µM. It also gave a TGI [65] of 35.6 µM, a TGI [46] of 93.7 µM and a TGI [47] of 65 µM. For the same compound, the TGI [48] was 30.5 µM, the TGI [66] was 29.6 µM and the TGI [50] was 37.9 µM. The TGI [51] was 42.1 µM, the TGI [52] was 32.6 µM and the TGI [67] was 31.6 µM. For the same compound, the TGI [53] was 29.5 µM, the TGI [55] was 34.5 µM and the TGI [58] was 60.5 µM.
